# Assay: Gelation of non-aqueous protic solvent formulations on adding polar aprotic solvent
# Type: physicochemical
# Details: adding polar aprotic solvents such as DMSO to non-aqueous protic solvent formulation
# From the text: Thus, these solvents have an anti-gellant effect.
row,Molecule,gelation of the formulation
1,calcitonin,prevents gelation
2,CCNC(=O)[C@@H]1CCCN1C(=O)[C@H](CCCNC(=N)N)NC(=O)[C@H](CC(C)C)NC(=O)[C@@H](CC(C)C)NC(=O)[C@H](Cc1ccc(O)cc1)NC(=O)[C@H](CO)NC(=O)[C@H](Cc1c[nH]c2ccccc12)NC(=O)[C@H](Cc1c[nH]cn1)NC(=O)[C@@H]1CCC(=O)N1 [leuprolide],prevents gelation
3,CC(C)C[C@H](NC(=O)[C@@H](COC(C)(C)C)NC(=O)[C@H](Cc1ccc(O)cc1)NC(=O)[C@H](CO)NC(=O)[C@H](Cc1c[nH]c2ccccc12)NC(=O)[C@H](Cc1cnc[nH]1)NC(=O)[C@@H]1CCC(=O)N1)C(=O)N[C@@H](CCCNC(=N)N)C(=O)N1CCC[C@H]1C(=O)NNC(N)=O [goserelin],prevents gelation

# — patent US6066619A, “Non-aqueous protic peptide formulations” (Alza Corporation, priority 1999, dated 2000)
